{"source": "patent US8865716B2", "about": "“Dihydropteridinones II” (Boehringer Ingelheim International GmbH, priority 2013, dated 2014)"}
{"system": "Aβ42", "experiment": "Aβ42 production in H4 neuroglioma cells stably expressing human APP695 (Meso Scale Discovery electrochemiluminescence assay)", "format": "cell-based", "conditions": "higher ratio = more specific inhibition of Aβ42 over Aβ total", "protocol": "Cells were plated out to near confluency. The compounds to be tested were received as 10 mM stocks in 100% DMSO. A dilution series was initially generated in 100% DMSO and then diluted 200-fold in cell culture media such that the tested concentration range was 30 μM to 0.1 nM and the final DMSO concentration was 0.5%. The diluted compounds were incubated with the cells for 22 hours in an incubator at 37° C. and 5% CO2. Aβ42 as well as Aβ total levels were then measured post-incubation from the supernatant of the cells. Aβ42 levels were determined using a specific electrochemiluminescence assay provided by Meso Scale Discovery (Catalog #L21CA-1) according to the manufacturer's protocol. Aβ total levels were likewise determined using a specific electrochemiluminescence assay provided by Meso Scale Discovery (Catalog #L21ZA-1) according to the manufacturer's protocol.\nIn order to absolutely define the described compounds as modulators of γ-Secretase as opposed to simply inhibitors of γ-Secretase, measurements of not only Aβ42 but also Aβ total are performed."}
{"compound": "COc1cc(Nc2ncc3c(n2)N(C)C2(CCOCC2)C(=O)N3C)ccc1-c1cnc(C)o1", "note": "[Example 1]", "Ratio Aβ(total)/Aβ42 (Aβ total IC50/Aβ42 IC50)": ">244"}
{"compound": "COc1cc(Nc2ncc3c(n2)N(C)C2(CCOCC2)C(=O)N3C)ccc1-n1cnc(C)c1", "note": "[Example 2]", "Ratio Aβ(total)/Aβ42 (Aβ total IC50/Aβ42 IC50)": 89}
{"compound": "Cc1ncc(-c2ccc(Nc3ncc4c(n3)N(C)C3(CCOCC3)C(=O)N4C)cn2)o1", "note": "[Example 3]", "Ratio Aβ(total)/Aβ42 (Aβ total IC50/Aβ42 IC50)": ">6"}
{"compound": "Cc1ncc(-c2ccc(Nc3nc(C)c4c(n3)N(C)C3(CCOCC3)C(=O)N4C)cn2)o1", "note": "[Example 5]", "Ratio Aβ(total)/Aβ42 (Aβ total IC50/Aβ42 IC50)": ">9"}
{"compound": "COc1cc(Nc2ncc3c(n2)N(C)C2(CCOC2)C(=O)N3C)ccc1-n1cnc(C)c1", "note": "(stereo not shown) [Example 6]", "Ratio Aβ(total)/Aβ42 (Aβ total IC50/Aβ42 IC50)": ">136"}
{"compound": "COc1cc(Nc2ncc3c(n2)N(C)C2(CCOC2)C(=O)N3C)ccc1-c1cnc(C)o1", "note": "(stereo not shown) [Example 7]", "Ratio Aβ(total)/Aβ42 (Aβ total IC50/Aβ42 IC50)": ">315"}
{"compound": "Cc1ncc(-c2ccc(Nc3ncc4c(n3)N(C)C3(CCOC3)C(=O)N4C)cn2)o1", "note": "(stereo not shown) [Example 8]", "Ratio Aβ(total)/Aβ42 (Aβ total IC50/Aβ42 IC50)": ">10"}
{"compound": "COc1cc(Nc2ncc3c(n2)N(C)C2(CCOCC2)C(=O)N3)ccc1-n1cnc(C)c1", "note": "[Example 9]", "Ratio Aβ(total)/Aβ42 (Aβ total IC50/Aβ42 IC50)": ">101"}
{"compound": "COc1cc(Nc2ncc3c(n2)N(C)C2(CCOC2)C(=O)N3)ccc1-n1cnc(C)c1", "note": "(stereo not shown) [Example 10]", "Ratio Aβ(total)/Aβ42 (Aβ total IC50/Aβ42 IC50)": 46}
{"compound": "COCCN1C(=O)C2(CCOCC2)N(C)c2nc(Nc3ccc(-n4cnc(C)c4)c(OC)c3)ncc21", "note": "[Example 11]", "Ratio Aβ(total)/Aβ42 (Aβ total IC50/Aβ42 IC50)": 26}
{"compound": "COCCN1C(=O)C2(CCOCC2)N(C)c2nc(Nc3ccc(-c4ccnc(C)c4)cc3)ncc21", "note": "[Example 12]", "Ratio Aβ(total)/Aβ42 (Aβ total IC50/Aβ42 IC50)": 11}
{"compound": "COCCN1C(=O)C2(CCOCC2)N(C)c2nc(Nc3ccc(-n4cnc(C)n4)c(OC)c3)ncc21", "note": "[Example 13]", "Ratio Aβ(total)/Aβ42 (Aβ total IC50/Aβ42 IC50)": ">13"}
{"compound": "COCCN1C(=O)C2(CCOC2)N(C)c2nc(Nc3ccc(-c4ccnc(C)c4)cc3)ncc21", "note": "(stereo not shown) [Example 14]", "Ratio Aβ(total)/Aβ42 (Aβ total IC50/Aβ42 IC50)": ">27"}
{"compound": "COCCN1C(=O)C2(CCOC2)N(C)c2nc(Nc3ccc(-n4cnc(C)n4)c(OC)c3)ncc21", "note": "(stereo not shown) [Example 15]", "Ratio Aβ(total)/Aβ42 (Aβ total IC50/Aβ42 IC50)": ">15"}
{"compound": "COCCN1C(=O)C2(CCOC2)N(C)c2nc(Nc3ccc(-n4cnc(C)c4)c(OC)c3)ncc21", "note": "(stereo not shown) [Example 16]", "Ratio Aβ(total)/Aβ42 (Aβ total IC50/Aβ42 IC50)": 88}
{"compound": "CCCN1C(=O)C2(CCOCC2)N(C)c2nc(Nc3ccc(-n4cnc(C)c4)c(OC)c3)ncc21", "note": "[Example 17]", "Ratio Aβ(total)/Aβ42 (Aβ total IC50/Aβ42 IC50)": 65}
{"compound": "Cc1cn(-c2ccc(Nc3ncc4c(n3)NC3(CCOC3)C(=O)N4C)cc2C#N)cn1", "note": "(stereo not shown) [Example 19]", "Ratio Aβ(total)/Aβ42 (Aβ total IC50/Aβ42 IC50)": ">257"}
{"compound": "COc1cc(Nc2ncc3c(n2)NC2(CCOC2)C(=O)N3C)ccc1-n1cnc(C)c1", "note": "(stereo not shown) [Example 20]", "Ratio Aβ(total)/Aβ42 (Aβ total IC50/Aβ42 IC50)": ">90"}
{"compound": "COc1cc(Nc2ncc3c(n2)NC2(CCOC2)C(=O)N3CC2CCOCC2)ccc1-n1cnc(C)c1", "note": "(stereo not shown) [Example 22]", "Ratio Aβ(total)/Aβ42 (Aβ total IC50/Aβ42 IC50)": ">9"}
{"compound": "COc1cc(Nc2ncc3c(n2)N(CC2CCOCC2)C2(CCOC2)C(=O)N3CC2CCOCC2)ccc1-n1cnc(C)c1", "note": "(stereo not shown) [Example 24]", "Ratio Aβ(total)/Aβ42 (Aβ total IC50/Aβ42 IC50)": ">10"}
{"compound": "COc1cc(Nc2ncc3c(n2)N(C)C2(COCCOC2)C(=O)N3)ccc1-n1cnc(C)c1", "note": "[Example 25]", "Ratio Aβ(total)/Aβ42 (Aβ total IC50/Aβ42 IC50)": 91}
{"compound": "COc1cc(Nc2ncc3c(n2)N(C)C2(CCOC2)C(=O)N3CC2CCOCC2)ccc1-n1cnc(C)c1", "note": "(stereo not shown) [Example 26]", "Ratio Aβ(total)/Aβ42 (Aβ total IC50/Aβ42 IC50)": 46}
{"compound": "COc1cc(Nc2ncc3c(n2)N(C)C2(COCCOC2)C(=O)N3C)ccc1-n1cnc(C)c1", "note": "[Example 27]", "Ratio Aβ(total)/Aβ42 (Aβ total IC50/Aβ42 IC50)": ">112"}
{"compound": "COc1cc(Nc2ncc3c(n2)NC2(CCOC2)C(=O)N3C2COC2)ccc1-n1cnc(C)c1", "note": "(stereo not shown) [Example 28]", "Ratio Aβ(total)/Aβ42 (Aβ total IC50/Aβ42 IC50)": ">3"}
{"compound": "COc1cc(Nc2ncc3c(n2)NC2(CCOC2)C(=O)N3CCC(C)C)ccc1-n1cnc(C)c1", "note": "(stereo not shown) [Example 29]", "Ratio Aβ(total)/Aβ42 (Aβ total IC50/Aβ42 IC50)": 39}
{"compound": "COCCN1c2nc(Nc3ccc(-n4cnc(C)c4)c(OC)c3)nc(CC(C)C)c2N(C)C(=O)C12CCOC2", "note": "(stereo not shown) [Example 30]", "Ratio Aβ(total)/Aβ42 (Aβ total IC50/Aβ42 IC50)": 96}
{"compound": "COCCN1c2nc(Nc3ccc(-c4cnc(C)o4)c(OC)c3)nc(CC(C)C)c2N(C)C(=O)C12CCOC2", "note": "(stereo not shown) [Example 31]", "Ratio Aβ(total)/Aβ42 (Aβ total IC50/Aβ42 IC50)": 47}
{"compound": "CCc1nc(Nc2ccc(-n3cnc(C)c3)c(C#N)c2)nc2c1N(C)C(=O)C1(CCOC1)N2C", "note": "(stereo not shown) [Example 35]", "Ratio Aβ(total)/Aβ42 (Aβ total IC50/Aβ42 IC50)": 180}
{"compound": "Cc1ncc(-c2ccc(Nc3ncc4c(n3)N(C)C3(CCc5ccccc5C3)C(=O)N4C)cn2)o1", "note": "(stereo not shown) [Example 37]", "Ratio Aβ(total)/Aβ42 (Aβ total IC50/Aβ42 IC50)": 29}
{"compound": "COc1cc(Nc2ncc3c(n2)N(C)C2(CCOCC2)C(=O)N3C2CC2)ccc1-n1cnc(C)c1", "note": "[Example 37b]", "Ratio Aβ(total)/Aβ42 (Aβ total IC50/Aβ42 IC50)": 47}
{"compound": "COc1cc(Nc2ncc3c(n2)N(C)C2(CCOCC2)C(=O)N3c2cc(F)cc(F)c2)ccc1-n1cnc(C)c1", "note": "[Example 37c]", "Ratio Aβ(total)/Aβ42 (Aβ total IC50/Aβ42 IC50)": 75}
{"compound": "COc1cc(Nc2nc3c(c(C(F)(F)F)n2)N(C)C(=O)C2(CCOCC2)N3C)ccc1-n1cnc(C)c1", "note": "[Example 37d]", "Ratio Aβ(total)/Aβ42 (Aβ total IC50/Aβ42 IC50)": ">36"}
{"compound": "COc1cc(Nc2ncc3c(n2)N(C)C2(CCOC2)C(=O)N3CC(F)(F)F)ccc1-n1cnc(C)c1", "note": "(stereo not shown) [Example 37e]", "Ratio Aβ(total)/Aβ42 (Aβ total IC50/Aβ42 IC50)": 82}
{"compound": "COc1cc(Nc2ncc3c(n2)N(C)C2(CCOCC2)C(=O)N3c2ccc(F)cc2)ccc1-n1cnc(C)c1", "note": "[Example 37f]", "Ratio Aβ(total)/Aβ42 (Aβ total IC50/Aβ42 IC50)": 55}
{"compound": "COc1cc(Nc2ncc3c(n2)N(C)C2(CCOC2)C(=O)N3C2CC2)ccc1-n1cnc(C)c1", "note": "(stereo not shown) [Example 37g]", "Ratio Aβ(total)/Aβ42 (Aβ total IC50/Aβ42 IC50)": 58}
{"compound": "COc1cc(Nc2ncc3c(n2)N(C)C2(CCOC2)C(=O)N3CC(F)F)ccc1-n1cnc(C)c1", "note": "(stereo not shown) [Example 37h]", "Ratio Aβ(total)/Aβ42 (Aβ total IC50/Aβ42 IC50)": 85}
{"compound": "CCc1nc(Nc2cnc(-n3cnc(C)c3)c(OC)c2)nc2c1N(C)C(=O)C1(CC1)N2C", "note": "[Example 37i]", "Ratio Aβ(total)/Aβ42 (Aβ total IC50/Aβ42 IC50)": 54}
{"compound": "COc1cc(Nc2ncc3c(n2)N(C)C2(CCOCC2)C(=O)N3Cc2ccc(F)cc2F)ccc1-n1cnc(C)c1", "note": "[Example 37j]", "Ratio Aβ(total)/Aβ42 (Aβ total IC50/Aβ42 IC50)": 57}
{"compound": "COc1cc(Nc2ncc3c(n2)N(C)C2(CCOC2)C(=O)N3C(C)c2ccccn2)ccc1-n1cnc(C)c1", "note": "(stereo not shown) [Example 37k]", "Ratio Aβ(total)/Aβ42 (Aβ total IC50/Aβ42 IC50)": 88}
{"compound": "COc1cc(Nc2ncc3c(n2)N(C2CCCC2)C2(CC2)C(=O)N3C)ccc1-n1cnc(C)c1", "note": "[Example 38]", "Ratio Aβ(total)/Aβ42 (Aβ total IC50/Aβ42 IC50)": ">15"}
{"compound": "COc1cc(Nc2ncc3c(n2)N(C)C2(CCCCOC2)C(=O)N3C)ccc1-n1cnc(C)c1", "note": "(stereo not shown) [Example 39]", "Ratio Aβ(total)/Aβ42 (Aβ total IC50/Aβ42 IC50)": 91}
{"compound": "COc1cc(Nc2nc3c(c(C(C)(C)O)n2)N(C)C(=O)C2(CCOC2)N3C)ccc1-c1cnc(C)o1", "note": "(stereo not shown) [Example 40]", "Ratio Aβ(total)/Aβ42 (Aβ total IC50/Aβ42 IC50)": ">62"}
{"compound": "COc1cc(Nc2ncc3c(n2)N(C)C2(COC2)C(=O)N3C)ccc1-n1cnc(C)c1", "note": "[Example 41]", "Ratio Aβ(total)/Aβ42 (Aβ total IC50/Aβ42 IC50)": ">25"}
{"compound": "COc1cc(Nc2ncc3c(n2)N(C)C2(CCCOCC2)C(=O)N3C)ccc1-n1cnc(C)c1", "note": "(stereo not shown) [Example 42]", "Ratio Aβ(total)/Aβ42 (Aβ total IC50/Aβ42 IC50)": 51}
{"compound": "COc1cc(Nc2ncc3c(n2)N(C)C2(CC2)C(=O)N3CC(F)(F)F)ccc1-n1cnc(C)c1", "note": "[Example 44]", "Ratio Aβ(total)/Aβ42 (Aβ total IC50/Aβ42 IC50)": 50}
{"compound": "COc1cc(Nc2ncc3c(n2)N(C)C2(CCC2)C(=O)N3CC(F)(F)F)ccc1-c1cnc(C)o1", "note": "[Example 45]", "Ratio Aβ(total)/Aβ42 (Aβ total IC50/Aβ42 IC50)": ">517"}
{"compound": "COc1cc(Nc2ncc3c(n2)N(C)C2(CC2)C(=O)N3c2ccc(F)cc2)ccc1-n1cnc(C)c1", "note": "[Example 46]", "Ratio Aβ(total)/Aβ42 (Aβ total IC50/Aβ42 IC50)": ">306"}
{"compound": "COc1cc(Nc2ncc3c(n2)N(C)C2(CC2)C(=O)N3C2COC2)ccc1-n1cnc(C)c1", "note": "[Example 47]", "Ratio Aβ(total)/Aβ42 (Aβ total IC50/Aβ42 IC50)": 98}
{"compound": "COc1cc(Nc2ncc3c(n2)N(C)C2(CCOC2)C(=O)N3c2ccc(C(F)(F)F)cn2)ccc1-n1cnc(C)c1", "note": "(stereo not shown) [Example 48]", "Ratio Aβ(total)/Aβ42 (Aβ total IC50/Aβ42 IC50)": 22}
{"compound": "COc1cc(Nc2ncc3c(n2)N(C)C2(CC4CCC2C4)C(=O)N3C)cnc1-n1cnc(C)c1", "note": "(stereo not shown) [Example 49]", "Ratio Aβ(total)/Aβ42 (Aβ total IC50/Aβ42 IC50)": 69}
{"compound": "COc1cc(Nc2ncc3c(n2)N(C)C2(CC2)C(=O)N3CC(F)(F)F)cnc1-n1cnc(C)c1", "note": "[Example 50]", "Ratio Aβ(total)/Aβ42 (Aβ total IC50/Aβ42 IC50)": ">147"}
{"compound": "COc1cc(Nc2ncc3c(n2)N(C)C2(CC2)C(=O)N3CC(F)F)ccc1-n1cnc(C)c1", "note": "[Example 52]", "Ratio Aβ(total)/Aβ42 (Aβ total IC50/Aβ42 IC50)": 61}
